The values that follow come from ChEMBL document CHEMBL1275270, “Antioxidant activity of unexplored indole derivatives: synthesis and screening” (Eur J Med Chem, 2010).

Activity calls are given as the source filed them. The calls are words filed in the database; no cut-off is given here.

What all share (type): functional
Assay [1] can be described thus: Antioxidant activity assessed as inhibition of peroxynitrite anion-induced oxidation of non-fluorescent DHR by rhodamine 123 staining in presence of NaHCO3.
A short description of assay [2]: Antioxidant activity assessed as inhibition of peroxynitrite anion-induced oxidation of non-fluorescent DHR by rhodamine 123 staining in absence of NaHCO3.
Assay [3] in a line: Antioxidant activity assessed as inhibition of singlet oxygen-induced oxidation of DHR by rhodamine 123 staining.
The nature of assay [4]: Antioxidant activity assessed as superoxide radical scavenging activity by NBT reduction assay.
Assay [5] in a line: Antioxidant activity assessed as trolox equivalent of peroxyl radical scavenging activity by ORAC assay.
Assay [6] in a line: Antioxidant activity assessed as inhibition of HOCl-induced oxidation of DHR by rhodamine 123 staining.
Assay [7] in a line: Antioxidant activity assessed as inhibition of nitric oxide-induced oxidation of non-fluorescent DAF-2 by fluorescence assay.
Assay [8] in a line: Antioxidant activity assessed as inhibition of H2O2-induced oxidation of lucigenin.

The IC50 is the concentration needed to halve the response being measured.

On to `CC(C)=CCn1cc(CC(N)C(=O)O)c2ccccc21` (stereo not given), for which the IC50 in assay [1] is 42.4 µM; in assay [2] (read-out: IC50), 94.7 µM; in assay [3] (read-out: IC50), 841 µM; in assay [6], 4.13 µM; in assay [7] (read-out: IC50), 208 µM. Further, the result in assay [4] was inactive. The fold change (FC) in assay [5] was 1.05. Moreover, in assay [8], the inhibition result is “inactive”.
In the case of `COC(=O)[C@H](Cc1cn(CCC(C)C)c2ccccc12)NC(C)=O`, the half-inhibitory concentration (IC50) in assay [1] was 315 µM; in assay [2] (read-out: IC50), 548 µM; in assay [3] (read-out: IC50), 718 µM; in assay [6], 8.35 µM; in assay [7], “Not Active”. The result in assay [4] was inactive. The fold change (FC) in assay [5] was 0.28. Moreover, in assay [8], the inhibition entry was “inactive”.
Consider `NCCc1c[nH]c2ccccc12` [TRYPTAMINE], for which the IC50 in assay [1] worked out at 10.4 µM; in assay [2] (read-out: IC50), 31.8 µM; in assay [3] (read-out: IC50), 682 µM; in assay [6], 6 µM; in assay [7] (read-out: IC50), 672 µM. Also, in assay [4], the result was inactive. The fold change (FC) in assay [5] stood at 1.86. Besides, the inhibition entry in assay [8] is “inactive”.
Regarding `N[C@@H](Cc1c[nH]c2ccccc12)C(=O)O` [TRYPTOPHAN], the IC50 came to 19.2 µM in assay [1]; 31.9 µM in assay [2] (read-out: IC50); 992 µM in assay [3] (read-out: IC50); 3.5 µM in assay [6]; 1150 µM in assay [7] (read-out: IC50). Moreover, the result in assay [4] was inactive. Further, the fold change (FC) in assay [5] was 2.74. The inhibition entry in assay [8] was “inactive”.
As to `COC(=O)C(Cc1c(CC=C(C)C)[nH]c2ccccc12)N1C(=O)c2ccccc2C1=O` (stereo not given), the IC50 in assay [1] is 28.2 µM; in assay [2], “Not Active”; in assay [3] (read-out: IC50) it was 2310 µM; in assay [6], 7.18 µM; in assay [7] (read-out: IC50) it was 239 µM. The outcome in assay [4] was inactive. Further, in assay [5], the fold change (FC) came to 0.45. In addition, in assay [8], the inhibition entry is “inactive”.
Regarding `COC(=O)[C@H](Cc1cn(CC=C(C)C)c2ccccc12)NC(C)=O`, the IC50 turned out to be 162 µM in assay [1]; 545 µM in assay [2] (read-out: IC50); 777 µM in assay [3] (read-out: IC50); 32.8 µM in assay [6]; 980 µM in assay [7] (read-out: IC50). In assay [4], the result was inactive. Also, in assay [5], the fold change (FC) came out at 0.21. For the same molecule, in assay [8], the inhibition result was “inactive”.
Regarding `COC(=O)[C@H](Cc1cn(C/C=C/c2ccccc2)c2ccccc12)NC(C)=O`, the IC50 in assay [1] is 36.3 µM; in assay [2] (read-out: IC50), 218 µM; in assay [3] (read-out: IC50), 971 µM; in assay [6] it was 67.7 µM; in assay [7], “Not Active”. Also, the outcome in assay [4] was inactive. Also, the fold change (FC) in assay [5] was 0.44. The inhibition entry in assay [8] was “inactive”.
As to `CC(C)=CCc1[nH]c2ccccc2c1CC(N)C(=O)O` (stereo not given), in assay [4], the outcome was inactive. The fold change (FC) in assay [5] was 0.48. Further, the half-maximal inhibitory concentration (IC50) in assay [6] was determined as 4.56 µM. Further, the inhibition result in assay [8] is “inactive”.
Consider `COC(=O)C(Cc1c[nH]c2ccccc12)N1C(=O)c2ccccc2C1=O` (stereo not given), for which the IC50 in assay [1] was 29.5 µM; in assay [2] (read-out: IC50) it was 208 µM; in assay [3] (read-out: IC50), 943 µM; in assay [6], 27.3 µM; in assay [7] it was “Not Active”. Moreover, the outcome in assay [4] was inactive. In addition, the fold change (FC) in assay [5] came to 1.09. In assay [8], the inhibition result is “inactive”.
Consider `COC(=O)C(Cc1c(CCC(C)C)[nH]c2ccccc12)N1C(=O)c2ccccc2C1=O` (stereo not given), for which the IC50 in assay [1] was 14 µM; in assay [2], “Not Active”; in assay [3] (read-out: IC50), 750 µM; in assay [6], 3.75 µM; in assay [7], “Not Active”. Also, in assay [4], the result was inactive. For the same molecule, the fold change (FC) in assay [5] was 0.97. In addition, the inhibition entry in assay [8] is “inactive”.
For `CC(C)CCn1cc(CCN2C(=O)c3ccccc3C2=O)c2ccccc21`, the IC50 is 237 µM in assay [1]; “Not Active” in assay [2]; 1030 µM in assay [3] (read-out: IC50); 10.6 µM in assay [6]; 1530 µM in assay [7] (read-out: IC50). In addition, the result in assay [4] was inactive. Moreover, the “fold change (FC)” value in assay [5] is “inactive”. In addition, the inhibition entry in assay [8] is “inactive”.
With `COC(=O)C(Cc1cn(CC=C(C)C)c2ccccc12)N1C(=O)c2ccccc2C1=O` (stereo not given), the IC50 was 241 µM in assay [1]; “Not Active” in assay [2]; 2860 µM in assay [3] (read-out: IC50); 34.3 µM in assay [6]; “Not Active” in assay [7]. In addition, in assay [4], the outcome was inactive. Further, in assay [5], the fold change (FC) was found to be 0.36. Further, the inhibition result in assay [8] was “inactive”.
As for `COC(=O)[C@H](Cc1c[nH]c2ccccc12)NC(C)=O`, the IC50 in assay [1] is 22.9 µM; in assay [2] (read-out: IC50), 223 µM; in assay [3] (read-out: IC50), 1560 µM; in assay [6], 50 µM; in assay [7] it was “Not Active”. Besides, the outcome in assay [4] was inactive. Also, the fold change (FC) in assay [5] stood at 1.21. In assay [8], the inhibition result was “inactive”.
Regarding `COC(=O)[C@H](Cc1cn(CCCc2ccccc2)c2ccccc12)NC(C)=O`, the IC50 is 142 µM in assay [1]; “Not Active” in assay [2]; 506 µM in assay [3] (read-out: IC50); 14.2 µM in assay [6]; “Not Active” in assay [7]. Further, in assay [4], the outcome was inactive. Moreover, the fold change (FC) in assay [5] is 0.44. For the same molecule, the inhibition result in assay [8] is “inactive”.
Consider `O=C1c2ccccc2C(=O)N1CCc1c[nH]c2ccccc12`, for which the IC50 is 40.9 µM in assay [1]; 93 µM in assay [2] (read-out: IC50); “Not Active” in assay [3]; 11.1 µM in assay [6]; “Not Active” in assay [7]. In assay [4], the outcome was inactive. Further, the fold change (FC) in assay [5] was found to be 1.46. For the same molecule, in assay [8], the inhibition entry was “inactive”.
For `CC(C)=CCn1cc(CCN)c2ccccc21`, the IC50 in assay [1] was 234 µM; in assay [2] (read-out: IC50), 905 µM; in assay [3] (read-out: IC50) it was 618 µM; in assay [6], 26.2 µM; in assay [7] (read-out: IC50), 1430 µM. In assay [4], the result was inactive. For the same molecule, in assay [5], the fold change (FC) is 0.96. Moreover, in assay [8], the inhibition result is “inactive”.
As to `CC(C)=CCn1cc(CCN2C(=O)c3ccccc3C2=O)c2ccccc21`, the half-inhibitory concentration (IC50) in assay [1] was 192 µM; in assay [2], “Not Active”; in assay [3], “Not Active”; in assay [6], 6.34 µM; in assay [7], “Not Active”. In addition, the result in assay [4] was inactive. Besides, the “fold change (FC)” value in assay [5] was “inactive”. Further, the inhibition result in assay [8] was “inactive”.
Regarding `COC(=O)[C@@H](N)Cc1c[nH]c2ccccc12` [TRYPTOPHAN METHYL ESTER], the half-maximal inhibitory concentration (IC50) is 13.1 µM in assay [1]; 47.8 µM in assay [2] (read-out: IC50); 1040 µM in assay [3] (read-out: IC50); 9.6 µM in assay [6]; “Not Active” in assay [7]. Also, in assay [4], the result was inactive. In assay [5], the fold change (FC) worked out at 2.6. The inhibition entry in assay [8] was “inactive”.
